From ChEMBL document CHEMBL1201862, “PubChem BioAssay data set” (2004)
The source made the active and inactive calls.

Key:
[1] = target: Peroxisome proliferator-activated receptor gamma/Nuclear receptor coactivator 1 (Homo sapiens, UniProt P37231); experiment: TR-FRET dose response biochemical High Throughput Screening assay for agonists of the steroid receptor coactivator 1 (SRC-1) recruitment by the peroxisome proliferator-activated receptor gamma (PPAR gamma): non-selective agonists. [Related pubchem assays (depositor defined):AID1300, AID1808, AID504735, AID631]; assay type: protein assay
Sequence of Peroxisome proliferator-activated receptor gamma/Nuclear receptor coactivator 1 (P37231 whole entry): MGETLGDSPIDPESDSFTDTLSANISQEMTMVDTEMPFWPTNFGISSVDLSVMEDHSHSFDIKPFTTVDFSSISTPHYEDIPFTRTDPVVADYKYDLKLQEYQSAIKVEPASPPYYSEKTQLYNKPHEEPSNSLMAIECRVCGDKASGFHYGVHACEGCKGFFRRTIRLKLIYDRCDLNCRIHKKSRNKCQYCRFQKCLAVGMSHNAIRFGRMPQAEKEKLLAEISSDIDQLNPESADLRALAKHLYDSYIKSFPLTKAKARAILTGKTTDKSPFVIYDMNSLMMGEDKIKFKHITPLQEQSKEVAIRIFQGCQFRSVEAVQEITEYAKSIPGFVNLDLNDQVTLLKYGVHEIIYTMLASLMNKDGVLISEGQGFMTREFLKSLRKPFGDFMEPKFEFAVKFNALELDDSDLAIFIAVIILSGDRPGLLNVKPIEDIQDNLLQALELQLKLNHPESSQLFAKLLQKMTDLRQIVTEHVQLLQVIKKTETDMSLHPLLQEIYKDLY
Sequence of Peroxisome proliferator-activated receptor gamma/Nuclear receptor coactivator 1 (Q15788 whole entry, further chain): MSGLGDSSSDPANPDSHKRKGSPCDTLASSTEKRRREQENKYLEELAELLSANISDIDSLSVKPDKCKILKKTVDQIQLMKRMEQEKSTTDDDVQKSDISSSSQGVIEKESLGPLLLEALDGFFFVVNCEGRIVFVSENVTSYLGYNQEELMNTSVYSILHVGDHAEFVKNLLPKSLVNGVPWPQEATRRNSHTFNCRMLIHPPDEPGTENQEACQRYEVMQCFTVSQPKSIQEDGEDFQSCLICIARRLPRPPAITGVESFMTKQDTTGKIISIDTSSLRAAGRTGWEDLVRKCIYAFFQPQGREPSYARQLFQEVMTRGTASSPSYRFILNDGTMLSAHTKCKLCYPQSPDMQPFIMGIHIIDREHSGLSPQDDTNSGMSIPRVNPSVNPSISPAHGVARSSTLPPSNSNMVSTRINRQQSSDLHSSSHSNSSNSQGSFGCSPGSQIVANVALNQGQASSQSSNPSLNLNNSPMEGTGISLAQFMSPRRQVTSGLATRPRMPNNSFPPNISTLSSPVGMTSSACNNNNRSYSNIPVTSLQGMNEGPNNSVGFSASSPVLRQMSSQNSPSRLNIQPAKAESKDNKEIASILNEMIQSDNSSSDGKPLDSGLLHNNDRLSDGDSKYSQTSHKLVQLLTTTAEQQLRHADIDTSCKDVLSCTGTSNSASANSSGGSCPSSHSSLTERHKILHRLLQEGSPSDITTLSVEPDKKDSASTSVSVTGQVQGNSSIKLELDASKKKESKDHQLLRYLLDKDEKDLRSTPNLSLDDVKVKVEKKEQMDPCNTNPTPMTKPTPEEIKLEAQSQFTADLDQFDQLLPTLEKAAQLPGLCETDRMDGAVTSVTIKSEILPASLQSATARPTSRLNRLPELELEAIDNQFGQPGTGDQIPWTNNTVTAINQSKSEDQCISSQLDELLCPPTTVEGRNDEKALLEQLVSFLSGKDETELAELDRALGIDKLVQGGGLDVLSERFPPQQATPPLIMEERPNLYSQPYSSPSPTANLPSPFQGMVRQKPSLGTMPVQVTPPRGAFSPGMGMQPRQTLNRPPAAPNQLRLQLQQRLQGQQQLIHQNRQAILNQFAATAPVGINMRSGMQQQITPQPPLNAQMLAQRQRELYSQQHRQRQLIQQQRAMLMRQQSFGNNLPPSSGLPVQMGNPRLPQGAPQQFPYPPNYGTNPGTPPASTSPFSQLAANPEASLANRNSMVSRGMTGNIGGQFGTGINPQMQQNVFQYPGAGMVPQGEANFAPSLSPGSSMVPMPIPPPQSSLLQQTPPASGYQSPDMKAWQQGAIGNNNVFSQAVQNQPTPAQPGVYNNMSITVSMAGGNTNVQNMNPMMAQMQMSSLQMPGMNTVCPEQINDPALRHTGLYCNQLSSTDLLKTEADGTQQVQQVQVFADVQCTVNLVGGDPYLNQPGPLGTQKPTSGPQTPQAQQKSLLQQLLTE

[2] = target: Cysteine protease ATG4B (Homo sapiens, UniProt Q9Y4P1); assay type: functional;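 also: Fluorescence-based dose-response confirmation assay measuring inhibition of ATG4B activity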
Sequence of Cysteine protease ATG4B (Q9Y4P1 whole entry): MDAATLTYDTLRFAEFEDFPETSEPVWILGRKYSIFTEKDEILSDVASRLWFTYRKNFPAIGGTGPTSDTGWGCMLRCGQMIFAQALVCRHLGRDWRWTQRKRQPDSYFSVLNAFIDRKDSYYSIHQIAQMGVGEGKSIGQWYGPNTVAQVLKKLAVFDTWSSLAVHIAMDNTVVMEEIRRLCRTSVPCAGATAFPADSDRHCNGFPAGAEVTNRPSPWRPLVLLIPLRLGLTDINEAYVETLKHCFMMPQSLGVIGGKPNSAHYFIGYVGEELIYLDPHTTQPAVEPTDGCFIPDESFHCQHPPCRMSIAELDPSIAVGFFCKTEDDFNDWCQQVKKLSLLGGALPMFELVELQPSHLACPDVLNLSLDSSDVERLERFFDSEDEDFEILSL

[3] = target: Phospholipase A2 (Homo sapiens, UniProt P04054); assay type: functional;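 also: confirmatory dose-response counterscreen on phospholipase A2, testing hits that came from an ultra-high-throughput screen for ATG4B inhibitors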
Sequence of Phospholipase A2 (P04054 whole entry): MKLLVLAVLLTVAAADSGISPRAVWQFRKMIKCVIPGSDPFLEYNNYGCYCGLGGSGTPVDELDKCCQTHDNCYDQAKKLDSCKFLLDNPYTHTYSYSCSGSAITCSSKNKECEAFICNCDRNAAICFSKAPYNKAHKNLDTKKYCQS

[4] = target: Peroxisome proliferator-activated receptor gamma/Nuclear receptor coactivator 2 (Homo sapiens, UniProt P37231); experiment: (§1) TR-FRET dose response biochemical High Throughput Screening assay for agonists of the steroid receptor coactivator 2 (SRC-2) recruitment by the peroxisome proliferator-activated receptor gamma (PPAR gamma): non-selective agonists. [Related pubchem assays: 1297, 1032 ]; assay type: functional
Sequence of Peroxisome proliferator-activated receptor gamma/Nuclear receptor coactivator 2 (P37231 whole entry): as the sequence (P37231 whole entry) above
Sequence of Peroxisome proliferator-activated receptor gamma/Nuclear receptor coactivator 2 (Q15596 whole entry, further chain): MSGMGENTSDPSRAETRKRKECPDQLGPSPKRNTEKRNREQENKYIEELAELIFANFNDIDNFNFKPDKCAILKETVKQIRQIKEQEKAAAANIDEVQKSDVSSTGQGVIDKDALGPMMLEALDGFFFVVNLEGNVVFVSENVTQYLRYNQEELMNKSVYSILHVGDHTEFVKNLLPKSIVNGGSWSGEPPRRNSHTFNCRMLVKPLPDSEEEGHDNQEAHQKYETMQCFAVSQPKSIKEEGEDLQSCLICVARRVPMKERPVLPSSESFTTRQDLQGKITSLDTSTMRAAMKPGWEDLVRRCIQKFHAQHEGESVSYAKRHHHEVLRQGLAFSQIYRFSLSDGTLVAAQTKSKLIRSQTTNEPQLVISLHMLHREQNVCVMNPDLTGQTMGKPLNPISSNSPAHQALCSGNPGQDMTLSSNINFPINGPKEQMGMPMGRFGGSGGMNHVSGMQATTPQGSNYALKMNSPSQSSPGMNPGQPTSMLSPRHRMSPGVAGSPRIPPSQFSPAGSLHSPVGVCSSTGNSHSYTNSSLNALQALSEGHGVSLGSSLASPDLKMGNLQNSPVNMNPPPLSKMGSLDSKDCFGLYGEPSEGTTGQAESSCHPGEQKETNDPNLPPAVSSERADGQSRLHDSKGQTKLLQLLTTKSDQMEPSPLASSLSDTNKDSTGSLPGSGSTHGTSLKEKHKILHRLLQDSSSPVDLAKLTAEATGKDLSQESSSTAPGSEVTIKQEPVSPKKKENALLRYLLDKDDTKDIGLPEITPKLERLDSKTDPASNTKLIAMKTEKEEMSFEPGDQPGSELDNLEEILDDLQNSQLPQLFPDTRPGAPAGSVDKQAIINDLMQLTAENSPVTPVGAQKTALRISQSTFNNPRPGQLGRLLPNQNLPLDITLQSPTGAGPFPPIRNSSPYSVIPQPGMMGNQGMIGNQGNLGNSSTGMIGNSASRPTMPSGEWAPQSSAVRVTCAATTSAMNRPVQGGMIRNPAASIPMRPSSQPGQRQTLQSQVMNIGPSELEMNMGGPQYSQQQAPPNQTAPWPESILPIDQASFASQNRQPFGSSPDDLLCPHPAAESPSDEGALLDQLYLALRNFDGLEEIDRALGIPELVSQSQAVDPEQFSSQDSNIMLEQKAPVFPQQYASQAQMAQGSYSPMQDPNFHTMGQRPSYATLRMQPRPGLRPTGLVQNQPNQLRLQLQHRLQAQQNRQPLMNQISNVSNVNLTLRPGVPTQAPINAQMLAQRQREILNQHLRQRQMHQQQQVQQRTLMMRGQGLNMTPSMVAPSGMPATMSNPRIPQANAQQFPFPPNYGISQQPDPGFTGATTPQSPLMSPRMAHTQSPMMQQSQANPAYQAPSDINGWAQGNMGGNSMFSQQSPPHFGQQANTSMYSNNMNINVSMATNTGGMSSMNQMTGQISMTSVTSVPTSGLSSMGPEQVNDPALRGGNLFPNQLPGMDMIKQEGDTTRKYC

[5] = target: DNA (cytosine-5)-methyltransferase 1 (Homo sapiens, UniProt P26358); experiment: inhibition of DNA methylation by DNMT1 – biochemical, fluorescent molecular beacon, confirmation (AID 602386); assay type: functional
[6] = target: NS3 (Hepatitis C virus, UniProt A3EZJ3); experiment: PubChem AID 2173; set-up: species or system Hepacivirus hominis
[7] = target: Peroxisome proliferator-activated receptor gamma/Nuclear receptor coactivator 3 (Homo sapiens, UniProt P37231); experiment: as §1, with “3 (SRC-3)” for “2 (SRC-2)”, “1301 (Confirmation screen.), 1048 (Primary screen.)]” for “1297, 1032 ]”; assay type: functional
[8] = A High Throughput Confirmatory Assay used to Identify Novel Compounds that Inhibit Mycobacterium Tuberculosis in the absence of Glycerol.; assay type: functional
[9] = cells; assay type: functional
[10] = target: NADPH oxidase 1 (Homo sapiens, UniProt Q9Y5S8); assay type: functional, cell-based;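 also: Cell-based assay with luminescence read-out, IC50 derived from inhibitor dose-response curves; intracellular ROS from endogenous NOX1 in intact HT29 colon cancer cells; potency of inhibitors that lower the ROS luminescence signal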
Sequence of NADPH oxidase 1 (Q9Y5S8 whole entry): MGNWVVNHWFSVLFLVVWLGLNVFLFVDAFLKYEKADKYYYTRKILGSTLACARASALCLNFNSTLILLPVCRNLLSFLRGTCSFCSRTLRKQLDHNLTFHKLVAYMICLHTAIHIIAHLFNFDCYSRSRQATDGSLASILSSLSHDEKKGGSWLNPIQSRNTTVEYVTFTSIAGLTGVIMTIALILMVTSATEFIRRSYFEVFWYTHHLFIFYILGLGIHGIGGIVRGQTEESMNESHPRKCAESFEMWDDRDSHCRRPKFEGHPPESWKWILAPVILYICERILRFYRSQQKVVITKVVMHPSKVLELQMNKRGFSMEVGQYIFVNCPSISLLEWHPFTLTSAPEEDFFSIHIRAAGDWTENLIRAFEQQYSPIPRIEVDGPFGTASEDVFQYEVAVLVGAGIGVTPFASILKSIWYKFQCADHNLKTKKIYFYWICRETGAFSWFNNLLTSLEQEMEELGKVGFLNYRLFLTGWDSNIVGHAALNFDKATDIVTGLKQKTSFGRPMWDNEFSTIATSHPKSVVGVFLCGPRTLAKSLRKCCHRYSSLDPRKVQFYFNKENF

[11] = cells; assay type: functional, cell-based
[12] = luciferase reporter signal suppression in cells – H4 neuroglioma cells, luminescence, dose response (AID 1990); assay type: functional, cell-based
[13] = target: T1, Mannose-6-phosphate isomerase (Homo sapiens, UniProt P34949); experiment: MPI enzyme activity inhibition – biochemical, fluorescence intensity, coupled assay, primary screen (AID 1209)
T1 sequence (P34949 whole entry): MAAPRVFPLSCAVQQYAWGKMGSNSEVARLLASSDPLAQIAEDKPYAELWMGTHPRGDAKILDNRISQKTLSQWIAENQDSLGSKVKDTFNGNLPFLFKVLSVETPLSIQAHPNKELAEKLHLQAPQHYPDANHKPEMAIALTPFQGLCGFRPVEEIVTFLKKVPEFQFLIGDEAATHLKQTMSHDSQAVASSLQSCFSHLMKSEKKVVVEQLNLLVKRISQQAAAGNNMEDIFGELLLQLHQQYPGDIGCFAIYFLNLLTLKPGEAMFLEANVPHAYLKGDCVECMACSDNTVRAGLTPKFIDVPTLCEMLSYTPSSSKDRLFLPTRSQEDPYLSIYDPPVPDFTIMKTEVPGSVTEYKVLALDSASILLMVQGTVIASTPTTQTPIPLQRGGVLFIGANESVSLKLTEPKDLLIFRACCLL

[14] = test system: HEK293; experiment: cells; assay type: functional, cell-based; conditions: Homo sapiens
[15] = NIH3T3 cell viability loss – ATP luminescence, mouse fibroblasts, counter-screen, dose response (AID 2010); assay type: functional, cell-based;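 also: cells exposed to compound for about 90 hours before reading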
[16] = test system: HEK293; experiment: cells; assay type: functional, cell-based; conditions: Homo sapiens; remark: listed apart in the source
[17] = test system: Streptococcus sp. 'group A'; experiment: Streptococcus pyogenes SK(-)GAS viability under kanamycin – luminescence, BacTiterGlo, confirmation, counter-screen for streptokinase expression inhibitor project, dose response (AID 1900); assay type: functional, organism-based
[18] = test system: HEK293; experiment: inhibition of NOD1-driven NF-kB reporter – cell-based, luminescence, uHTS, primary screen (AID 1578); assay type: functional; conditions: Homo sapiens
[19] = alpha-synuclein stem-loop translation blockers – luminescence, H4 neuroglioblastoma cells, dose confirmation, confirmation (AID 2454); assay type: functional, cell-based;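 also: H4 neuroglioblastoma cells carrying an alpha-synuclein 5'UTR luciferase reporter; potency for inhibition of the luciferase signal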
[20] = test system: HEK293; experiment: cells; assay type: functional, cell-based; conditions: Homo sapiens; remark: listed apart in the source
[21] = target: T1, Mannose-6-phosphate isomerase; experiment: MPI inhibition at elevated mannose 6-phosphate – biochemical, fluorescence intensity, high mannose 6-phosphate, primary screen (AID 1220)
[22] = test system: INS1; experiment: INS-1E survival protection against cytokine death – cell-based, luminescence, retest, dose response (AID 449756); assay type: functional; conditions: Rattus norvegicus;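 also: cell death triggered by IL-1 beta plus TNF-alpha plus IFN-gamma mixture; protective hits raise ATP signal compared with cytokine alone wells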
[23] = luciferase reporter signal reduction – luminescence, H4-C neuroglioblastoma cells, dose response (AID 2458); assay type: functional, cell-based;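 also: H4 neuroglioblastoma cells stably carrying a luciferase reporter gene fusion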
[24] = Trypanosoma cruzi growth suppression in host cells – NIH3T3 host cells, beta-gal luminescence, confirmation (AID 2044); assay type: functional, cell-based;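 also: intracellular parasites grown in NIH/3T3 mouse fibroblasts as host cells; luminescent beta-galactosidase reporter signal from transgenic T. cruzi replicating inside host cells; inhibitors lower the luminescence signal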
[25] = test system: Streptococcus; experiment: GAS UMAA2166 growth inhibition – luminescence, BacTiterGlo, counter-screen for streptokinase expression inhibitor project, dose response (AID 1915); assay type: functional, organism-based;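 also: potency for reduction of bacterial viability or growth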
[26] = test system: HEK293; experiment: NOD2 signaling inhibitors in MDP-stimulated cells, cell-based, uHTS, luminescence (AID 2001); assay type: functional; conditions: Homo sapiens
[27] = alpha-synuclein stem-loop luciferase translation blockers – H4 neuroglioma cells, luminescence, confirmation (AID 1988); assay type: functional, cell-based
[28] = target: Nucleotide-binding oligomerization domain-containing protein 2 (Homo sapiens, UniProt Q9HC29); experiment: inhibition of NOD2-driven NF-kB reporter – cell-based, luminescence, uHTS, HEK293 (AID 1566); assay type: functional
[29] = HPDE-C7 pancreatic duct cell viability loss – fluorescence, HTS (AID 430); assay type: functional, cell-based; conditions: Homo sapiens
[30] = target: FAD-linked sulfhydryl oxidase ALR (Homo sapiens, UniProt P55789); experiment: ALR-catalysed DTT oxidation blockers – biochemical, H2O2 detection, luminescence, cherry-pick, dose response (AID 493248)
[31] = viability loss of HPDE-C7K cells – cell-based, fluorescence, HTS, primary screen (AID 431); assay type: functional; conditions: Homo sapiens
[32] = viability of PTEN-deleted HCT116 cells – cell-based, HCT116 PTEN knockout, dose response (AID 1047); assay type: functional;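 also: HCT116 colon tumor cells with PTEN knocked out; cells exposed to compound for 60 hours before readout; potency for loss of cell viability measured by luminescence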
[33] = viability of HCT116 lacking mutant beta-catenin – cell-based, human colon tumor, dose response (AID 1045); assay type: functional;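 also: HCT116 colon tumor cells with beta catenin knocked out; cells exposed to compound for 60 hours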

With O=C1NN(c2ccccc2)C(=O)/C1=C/c1ccc(Sc2cccc3ccccc23)o1 the EC50 [1] was > 79.4 µM (inactive), the IC50 [2] was 8.56 µM (active) and the IC50 [3] was 8.08 µM (active). For the same compound, the EC50 [4] was 92.2 µM (not active), the IC50 [5] was 7.12 µM (active) and the IC50 [6] was 5.55 µM (active). The EC50 [7] was > 79.4 µM (not active).

For O=c1oc(-c2cccs2)nc2c1cnn2-c1ccccc1, the IC50 [8] was > 100 µM (active) and the IC50 [9] was 4.92 µM (active).

With Cc1ccc(-c2nc(-c3ccccc3)c(-c3ccccc3)[nH]2)cc1 the IC50 [10] was > 17 µM (not active).

With Oc1c(CN2CCN(c3ccccn3)CC2)cc(Cl)c2cccnc12 the EC50 [11] was > 12 µM (inconclusive), the EC50 [12] was 2.52 µM (active) and the IC50 [13] was > 50 µM (not active). The IC50 [14] was > 20 µM (inactive), the EC50 [15] was 7.32 µM (active) and the IC50 [16] was 6.23 µM (active). For the same compound, the EC50 [17] was 3.06 µM (active), the EC50 [18] was 4.58 µM (active) and the EC50 [19] was > 12 µM (not active). For the same compound, the IC50 [20] was > 20 µM (inactive), the IC50 [21] was > 50 µM (not active) and the AC50 [22] was 1.99 µM (active). The EC50 [23] was 10.7 µM (active), the EC50 [24] was 0.942 µM (active) and the EC50 [25] was 5.45 µM (active). For the same compound, the IC50 [26] was 4.88 µM (inactive), the EC50 [27] was < 0.1 µM (active) and the EC50 [28] was 8.07 µM (active).

For CCN(CCNC(=O)C1CCN(Cc2nc(-c3cccc(Cl)c3)oc2C)CC1)c1ccccc1, the EC50 [29] was > 20 µM (not active), the AC50 [30] was 0.024 µM (active) and the EC50 [31] was > 20 µM (not active). For the same compound, the EC50 [32] was 13.3 µM (active) and the EC50 [33] was 10.7 µM (active).
